Results from patent US20090047304A1, “Composition For Body Fat Reduction” (priority 2004, published 2009).

Assays:
[1] = Double-blind 6-week intake test of test capsules with walking exercise; rate of body fat and body weight measured; assay type: in vivo, human; settings: by intake of astaxanthin, 6 weeks
Experimental: This Hematococcus alga extract was formed into a capsule containing 6 mg of astaxanthin in terms of the free form (test capsule) and used for test. As placebo capsule (control capsule), a capsule containing 0 mg of astaxanthin and having the same shape was used for test.
32 persons to be tested who were healthy women 23-57 years old were divided at random into two groups i.e. test and control groups, each consisting of 16 persons. The allocation of persons to be tested into test and control groups was conducted in a double-blind method not so as to know persons to be tested and persons participated in test the fact that each of persons to be tested belongs to which group.
Each of persons to be tested in test group took two test capsules a day after supper while each of persons in control group took two placebo capsules a day after supper. The intake period of term (test period of term) was 6 weeks. The rate of body fat and body weight were measured at the beginning (0 week) and the completion (6 weeks) of test for all persons. The rate of body fat was measured with a weighing meter [TBF-511, a product of Tanita Co. Ltd.]
Exercise loaded on all persons to be tested in test period of term was walking. The quantity of exercise was determined by a maximum heart rate countering method. […]

[2] = cited from earlier work
[3] = Takahashi et al.; cited from earlier work

Structure (SMILES): CC1=C(/C=C/C(C)=C/C=C/C(C)=C/C=C/C=C(C)/C=C/C=C(C)/C=C/C2=C(C)C(=O)C(O)CC2(C)C)C(C)(C)CC(O)C1=O (stereo not drawn) [astaxanthin, 3,3′-dihydroxy-β, β-carotene-4,4′-dione]
- rate of body fat (in words) [1]: decreases
- antioxidative action, times as strong as vitamin E ([2]; relative to vitamin E): about 1000 times
- antioxidative action, times as strong as β-carotene ([2]; relative to β-carotene): about 40 times
- mutagenicity [3]: has not been observed having any mutagenicity
